Key:
[1] = system: E. coli; experiment: Antibiotic susceptibility testing of E. coli growth on photonic microarrays diffraction grating (relative EOT shift over time); assay type: cell-based; conditions: for Cross comparison of antibiotic effect at the same concentration (type of effect): 5 μg/mL of respective antibiotic, E. coli, FIG. 17; for MIC: Escherichia coli, E. coli proliferation on photonic microarrays diffraction grating, antibiotic introduced at time 0 at increasing concentrations, read-out: MIC (minimal inhibitory concentration) observed from EOT growth curves
From the text: A SiPA placed in a flow-device having an inlet and an outlet. […] Fluid containing bacteria is introduced through the inlet. Light reflected from the top and bottom of the pores is collected by the optical setup. The phase delay between the incident and the reflected light beams is proportional to the depth (L) of the pores, and the refractive index of the medium filling the pores. The presence of bacterial cells in the pores increase the refractive index of the pores. Thus, the phase delay of the reflected light in the presence of the bacteria differs from the phase delay of the reflected light in the absence of the bacteria, so that analysis of the light collected by the optical setup can provide indication regarding the phenotype of the cells.
The FFT provides the value (2 nL), where L is the average depth of the pores and n is their refractive index. This quantity is also referred to as the Effective Optical Thickness (EOT). The measured shift in the EOT value is a function of the change in the refraction index of the pole: ΔEOT/EOT0=2(Δn/n0)L, where n0 is the refractive index of the pores before the introduction of the bacteria into the pores, Δn is the change in the refractive index as a result of the introduction of the cells into the compartments, and EOT0 is the EOT before introducing the cells into the compartments. Δn is thus correlated with the pore's volume fraction occupied by bacteria cells.
Types of optical kinetic profiles made by bacterial cells on photonic microarrays diffraction grating (e.g., SiPA) include, without limitation, • 1. Bacteria cells are seeded into the pores/structures. Full growth media is supplied to the cells until a growth curve is established. • a. An anti-proliferation drug (bacteriostatic/antibiotics) is added to the media (see FIG. 7) and the correlation of EOT growth curve and drug concentration is analyzed. The MIC (minimal inhibitory concentration) is determined when the EOT shift becomes null. • b. If the drug is later remove from the media (see FIG. 8), the cell growth may resume, if the drug effect is reversible. • c. If the drug is bactericidal or its bacteriostatic effect is irreversible, then the EOT curve will retract as dead cells disintegrate and exit the pores (see FIG. 8). • d. If the growth media if deficient with critical nutrient or factor, then EOT growth curve will decline in relation to the deficiency (see FIG. 9). • 2. Bacteria suspension is introduced to the photonic microarrays diffraction grating under constant flow conditions, in salt buffer solution. • a. If the suspension contains an anti-attachment drug/factor that will affect pore/structure colonization, then correlation of EOT curve and drug concentration can be analyzed (see FIG. 10). • b. Once a stable EOT curve is established, the bacteria suspension is replaced with clean buffer to challenge the bacteria adhesion. If cells are rinsed out of the pores, EOT plot will retract (see FIG. 11).

[2] = system: E. coli; experiment: E. coli colonization of SiPA as a function of surface functionality (rate of EOT shift); assay type: cell-based; conditions: FIG. 12A
Protocol: The method includes the continuous or rapid serial monitoring of the light interferometry spectra obtained from a surface with reflective periodic topography (PRT), prior, during and following the controlled introduction of bacterial suspensions to it and/or addition of drugs/substances. Said interferometry spectra is analyzed (for example by fast Fourier transform) to reveal the rate of optical shift, e.g., the time-dependent alterations in the reflected light properties of said PRT, inflicted by the behavior of the cells (for example settling, adhering, migrating or proliferating).
Types of optical kinetic profiles made by bacterial cells on photonic microarrays diffraction grating (e.g., SiPA) include, without limitation, • 1. Bacteria cells are seeded into the pores/structures. Full growth media is supplied to the cells until a growth curve is established. • a. An anti-proliferation drug (bacteriostatic/antibiotics) is added to the media (see FIG. 7) and the correlation of EOT growth curve and drug concentration is analyzed. The MIC (minimal inhibitory concentration) is determined when the EOT shift becomes null. • b. […] If the suspension contains an anti-attachment drug/factor that will affect pore/structure colonization, then correlation of EOT curve and drug concentration can be analyzed (see FIG. 10). • b. […]

Compound | Cross comparison of antibiotic effect at the same concentration (type of effect) [1] | MIC [1] | Effect of WGA ligand in the suspension on WGA-improved colonization ([2]; NAG incorporated in the E. coli suspension, WGA-coated SiPA) | Improvement of E. Coli colonization over neat SiO2 or albumin ([2]; SiPA coated with WGA)
CO/N=C(\C(=O)N[C@@H]1C(=O)N2C(C(=O)O)=C(CSc3nc(=O)c(=O)[nH]n3C)CS[C@H]12)c1csc(N)n1 [Ceftriaxone Sodium] | bactericidal | 0.005 to 0.05 µg/mL |  | 
O=C(O)c1cn(C2CC2)c2cc(N3CCNCC3)c(F)cc2c1=O [Ciprofloxacin] | bacteriostatic | 0.005 to 0.05 µg/mL |  | 
CC(=O)N[C@@H]1[C@@H](O)[C@H](O)[C@@H](CO)O[C@@H]1O [NAG] |  |  | completely eliminate this effect | 
COc1cc(Cc2cnc(N)nc2N)cc(OC)c1OC [Trimethoprim] | below the MIC concentration | 5 to 50 µg/mL |  | 
Wheat-germ agglutinin [WGA] |  |  |  | 5 times

— patent US10281463B2, “Methods of determining cellular phenotypes” (Technion Research & Development Foundation Limited, priority 2015, dated 2019)
